Data taken from BindingDB's records for patent US20240368133 (Confo Therapeutics, 2024).

Molecular target: T1, Type-2 angiotensin II receptor/Low affinity immunoglobulin epsilon Fc receptor (Homo sapiens, UniProt P06734+P50052)
T1 sequence (P50052 whole entry): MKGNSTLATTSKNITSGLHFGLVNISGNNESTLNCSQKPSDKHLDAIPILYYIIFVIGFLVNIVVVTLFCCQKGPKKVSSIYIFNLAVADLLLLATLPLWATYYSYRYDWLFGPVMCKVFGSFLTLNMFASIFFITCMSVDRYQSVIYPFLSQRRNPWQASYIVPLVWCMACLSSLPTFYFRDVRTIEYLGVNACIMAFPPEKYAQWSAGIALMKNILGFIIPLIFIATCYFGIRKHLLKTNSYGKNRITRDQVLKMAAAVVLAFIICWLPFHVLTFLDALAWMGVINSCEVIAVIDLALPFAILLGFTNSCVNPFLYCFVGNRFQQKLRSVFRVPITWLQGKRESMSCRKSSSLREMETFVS
T1 sequence (P06734 whole entry): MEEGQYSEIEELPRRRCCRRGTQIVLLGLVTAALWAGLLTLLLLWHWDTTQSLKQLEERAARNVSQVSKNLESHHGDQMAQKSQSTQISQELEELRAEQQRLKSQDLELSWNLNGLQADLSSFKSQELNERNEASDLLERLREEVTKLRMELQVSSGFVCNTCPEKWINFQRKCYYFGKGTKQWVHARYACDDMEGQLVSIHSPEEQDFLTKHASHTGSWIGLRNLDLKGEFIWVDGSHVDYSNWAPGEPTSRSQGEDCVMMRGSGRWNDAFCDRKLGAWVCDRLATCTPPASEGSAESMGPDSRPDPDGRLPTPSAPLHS
Test: Radioligand Assay
Procedure: All synthesized ligands were evaluated in a radioligand assay by displacing 125I-[Sar1, Ile8]-Angiotensin II (Perkin Elmer, NEX248050UC) from human AT2R fused to Cb23 or human/rodent/cynomolgus/minipig/dog WT AT2R in HEK-293 cells membrane preparations, using C21 (Vicore Pharma) and Angiotensin II (endogenous ligand) as reference. The affinity was determined using an eight-point dose-response curve, each point performed in duplicates. The compounds were also evaluated in a counterscreen binding assay for displacement of 125I-[Sar1, Ile8]-Angiotensin II binding to human AT1R in HEK-293 cell membranes. For AT1R, the percent displacement was determined at 1 μM and […] or using an eight-point dose-response curve, each point performed in duplicates with Candesartan and Losartan used as reference.For the AT2R/AT1R binding assays, cell membranes, expressing AT2R_Cb23, AT2R or AT1R, were incubated with 0.05 nM 125I-[Sarl, Ile8]-Ang II. The ligand competition assay was performed in a total volume of 100 μL assay buffer (50 mM Tris, 5 mM MgCl2, 1 mM EDTA, 0.1% BSA, pH 7.4), at concentrations ranging from 1 μM to 10 μM. For each experiment, each ligand concentration was tested in duplicate. Non-specific binding (NSB) was determined by the inclusion of 10 μM unlabeled [Sarl]-Ang II (Sigma Aldrich). The reaction was initiated by the addition of radioligand, after which the plates were incubated at 25° C. for one hour. The reaction was terminated by rapid filtration using a vacuum harvester, applying six washes with 100 μL of ice-cold wash buffer (50 mM Tris.HCl, pH 7.4). The filter plates GF/C (Perkin Elmer) were pre-soaked in 0.5% PEI. The residual amount of radioactivity was determined via liquid scintillation counting. IC50 values, representing the concentration at which each ligand displaced 50% of 125I-[Sarl, Ile8]-Ang II, were calculated using GraphPad Prism 7.02 by applying a Non-linear regression equation (variable slope, four parameters) on the data.

SMILES	IC50 [µM]
CCCCNC(=O)NS(=O)(=O)c1ccc(C(F)(F)F)cc1N1CCN(Cc2nc3ccccc3n2C)CC1 [US20240368133, Compound A-10]	3.36
c1ccc2sc(CN3CCN(c4cc(NCC5CC5)ccc4-c4nn[nH]n4)CC3)nc2c1 [US20240368133, Compound A-62]	1.68
CC(C)Cc1ccc(-c2nn[nH]n2)c(N2CCN(Cc3nc4ncccc4o3)CC2)c1 [US20240368133, Compound A-71]	18.5
CCc1nc2ccc(NC(=O)c3ccccc3)cc2c(=O)n1CC1CCN(c2ccccc2-c2nn[nH]n2)CC1 [US20240368133, Compound A-245]	9.97
